PubChem BioAssay (NCI)
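Cells were grown in 96-well plates and exposed to each compound for 48 hours at five concentrations; endpoints were interpolated linearly between bracketing concentrations, or set to the highest concentration if not reached. Here, GI50 denotes the concentration required for 50% inhibition of growth. TGI is the concentration that stops growth completely.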

Key:
Experiment in all cases: NCI tumour cell line growth inhibition, 48 h
NCI-H226 lung = system: NCI-H226 lung
LOX IMVI melanoma = system: LOX IMVI melanoma
SW-620 colon = system: SW-620 colon
SK-OV-3 ovarian = system: SK-OV-3 ovarian
SR leukemia = system: SR leukemia
ACHN renal = system: ACHN renal
MDA-MB-435 = system: MDA-MB-435
CAKI-1 renal = system: CAKI-1 renal
NCI-H23 lung = system: NCI-H23 lung
IGROV1 ovarian = system: IGROV1 ovarian
EKVX NSCLC = system: EKVX NSCLC
U251 CNS = system: U251 CNS
A549 NSCLC = system: A549 NSCLC
MALME-3M melanoma = system: MALME-3M melanoma
HT29 colon = system: HT29 colon
KM12 colon = system: KM12 colon
SK-MEL-5 melanoma = system: SK-MEL-5 melanoma
NCI-H460 lung = system: NCI-H460 lung
CCRF-CEM leukemia = system: CCRF-CEM leukemia
HCT-15 colon = system: HCT-15 colon
RXF 393 renal = system: RXF 393 renal
BT-549 breast = system: BT-549 breast
MOLT-4 leukemia = system: MOLT-4 leukemia
786-0 renal = system: 786-0 renal
TK-10 renal = system: TK-10 renal
K-562 leukemia = system: K-562 leukemia
MDA-MB-231 breast = system: MDA-MB-231 breast
UO-31 renal = system: UO-31 renal
HOP-62 NSCLC = system: HOP-62 NSCLC
M14 melanoma = system: M14 melanoma
OVCAR-4 ovarian = system: OVCAR-4 ovarian
NCI/ADR-RES ovarian = system: NCI/ADR-RES ovarian
NCI-H522 lung = system: NCI-H522 lung
SN12C renal = system: SN12C renal
SK-MEL-2 melanoma = system: SK-MEL-2 melanoma
UACC-62 melanoma = system: UACC-62 melanoma
SF-268 CNS = system: SF-268 CNS
RPMI-8226 leukemia = system: RPMI-8226 leukemia
SNB-19 CNS = system: SNB-19 CNS
HCC-2998 colon = system: HCC-2998 colon
SK-MEL-28 melanoma = system: SK-MEL-28 melanoma
SF-539 CNS = system: SF-539 CNS
UACC-257 melanoma = system: UACC-257 melanoma
OVCAR-8 ovarian = system: OVCAR-8 ovarian
DU-145 prostate = system: DU-145 prostate
SNB-75 CNS = system: SNB-75 CNS
PC-3 prostate = system: PC-3 prostate
COLO 205 colon = system: COLO 205 colon
HCT-116 colon = system: HCT-116 colon
OVCAR-5 ovarian = system: OVCAR-5 ovarian
OVCAR-3 ovarian = system: OVCAR-3 ovarian
MCF7 breast = system: MCF7 breast
HL-60(TB) leukemia = system: HL-60(TB) leukemia
A498 renal = system: A498 renal
HOP-92 NSCLC = system: HOP-92 NSCLC
HS 578T breast = system: HS 578T breast

## COc1cc(-c2ccc(-c3ccc(C(=N)N)nc3)s2)cc(OC)c1OC
NCI-H226 lung
  GI50: 10.8 µM
  TGI: 31.1 µM
LOX IMVI melanoma
  GI50: 1.87 µM
  TGI: 3.48 µM
SW-620 colon
  GI50: 2.09 µM
  TGI: 5.24 µM
SK-OV-3 ovarian
  GI50: 13.1 µM
  TGI: 26 µM
SR leukemia
  GI50: 2.48 µM
ACHN renal
  GI50: 1.73 µM
  TGI: 3.14 µM
MDA-MB-435
  GI50: 1.62 µM
  TGI: 3.05 µM
CAKI-1 renal
  GI50: 1.59 µM
  TGI: 3.19 µM
NCI-H23 lung
  GI50: 6.4 µM
  TGI: 22.6 µM
IGROV1 ovarian
  GI50: 2.63 µM
  TGI: 6.2 µM
EKVX NSCLC
  GI50: 5.19 µM
  TGI: 18.2 µM
U251 CNS
  GI50: 1.74 µM
  TGI: 3.53 µM
A549 NSCLC
  GI50: 2.06 µM
  TGI: 4.51 µM
MALME-3M melanoma
  GI50: 1.53 µM
  TGI: 3 µM
HT29 colon
  GI50: 1.37 µM
  TGI: 5.68 µM
KM12 colon
  GI50: 2.78 µM
  TGI: 10.5 µM
SK-MEL-5 melanoma
  GI50: 1.67 µM
  TGI: 3.08 µM
NCI-H460 lung
  GI50: 2.1 µM
  TGI: 4.39 µM
CCRF-CEM leukemia
  GI50: 2.49 µM
  TGI: 7.41 µM
HCT-15 colon
  GI50: 2.18 µM
  TGI: 6.41 µM
RXF 393 renal
  GI50: 2.19 µM
  TGI: 4.83 µM
BT-549 breast
  GI50: 1.67 µM
  TGI: 3.49 µM
MOLT-4 leukemia
  GI50: 2.53 µM
  TGI: 6.9 µM
786-0 renal
  GI50: 2.12 µM
  TGI: 3.93 µM
TK-10 renal
  GI50: 3.19 µM
  TGI: 9.35 µM
K-562 leukemia
  GI50: 1.39 µM
  TGI: 4.46 µM
MDA-MB-231 breast
  GI50: 1.85 µM
  TGI: 4.2 µM
UO-31 renal
  GI50: 1.88 µM
  TGI: 3.4 µM
HOP-62 NSCLC
  GI50: 2.79 µM
  TGI: 11.5 µM
M14 melanoma
  GI50: 1.66 µM
  TGI: 3.33 µM
OVCAR-4 ovarian
  GI50: 2.69 µM
  TGI: 10.4 µM
NCI/ADR-RES ovarian
  GI50: 5.2 µM
  TGI: 24.1 µM
NCI-H522 lung
  GI50: 1.8 µM
  TGI: 4.14 µM
SN12C renal
  GI50: 2.05 µM
  TGI: 4.71 µM
SK-MEL-2 melanoma
  GI50: 2.09 µM
  TGI: 4.35 µM
UACC-62 melanoma
  GI50: 1.73 µM
  TGI: 3.3 µM
SF-268 CNS
  GI50: 14.6 µM
  TGI: 33.2 µM
RPMI-8226 leukemia
  GI50: 1.67 µM
  TGI: 3.97 µM
SNB-19 CNS
  GI50: 4.73 µM
  TGI: 16.3 µM
HCC-2998 colon
  GI50: 2 µM
  TGI: 3.9 µM
SK-MEL-28 melanoma
  GI50: 1.62 µM
  TGI: 3.18 µM
SF-539 CNS
  GI50: 1.61 µM
  TGI: 3.01 µM
UACC-257 melanoma
  GI50: 2.15 µM
  TGI: 4.07 µM
OVCAR-8 ovarian
  GI50: 2.3 µM
  TGI: 5.23 µM
DU-145 prostate
  GI50: 3.45 µM
  TGI: 12.1 µM
SNB-75 CNS
  GI50: 1.5 µM
  TGI: 5.16 µM
PC-3 prostate
  GI50: 3.11 µM
  TGI: 12.7 µM
COLO 205 colon
  GI50: 1.6 µM
  TGI: 3.26 µM
HCT-116 colon
  GI50: 1.47 µM
  TGI: 2.87 µM
OVCAR-5 ovarian
  GI50: 2.1 µM
  TGI: 5.38 µM
OVCAR-3 ovarian
  GI50: 2.6 µM
  TGI: 6.35 µM
MCF7 breast
  GI50: 1.3 µM
  TGI: 3.24 µM
HL-60(TB) leukemia
  GI50: 1.87 µM
  TGI: 4.21 µM
A498 renal
  GI50: 4.9 µM
  TGI: 18.2 µM
HOP-92 NSCLC
  GI50: 1.91 µM
  TGI: 8.37 µM
HS 578T breast
  GI50: 2.59 µM
  TGI: 8.52 µM
